Structures are written as SMILES.

The target of the first assay is T1, HDM2 (Homo sapiens, UniProt Q00987).
T1 construct: Thioredoxin (N); made in house; host or cells: E. coli strain BL21(DE3)Rosetta
T1 sequence (Q00987 17-125): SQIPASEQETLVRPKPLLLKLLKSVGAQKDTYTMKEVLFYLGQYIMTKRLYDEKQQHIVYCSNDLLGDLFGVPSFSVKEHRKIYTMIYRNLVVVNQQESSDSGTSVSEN
Description: HDM2 FRET assay (inhibition of binding of FITC labeled p53-pocket peptide to HDM2). Particulars: 0.5 nM HDM2 (residues 17 to 125), 3nM peptide, two hour incubation at room temperature; read-out: FRET IC50. The procedure, abridged:
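Final: 0.5 nM His-HDM2, 3 nM FITC peptide, 0.25 nM Tb anti-His Ab; PBS, 0.01% BSA, 0.01% Tween-20; 0.1% DMSO.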
With `C[C@H]1CC[C@H](Cn2c(N3CCC[C@H]3C(F)(F)F)nc3nc(-c4n[nH]c(=O)o4)nc(-c4cncc(Cl)c4)c32)CC1` [Example 16.106, 5-{6-(5-chloropyridin-3-yl)-7-[(trans-4-methylcyclohexyl)methyl]-8-[(2S)-2-(trifluoromethyl)pyrrolidin-1-yl]-7H-purin-2-yl} -1,3,4-oxadiazol-2(3H)-one], the IC50 is 0.825 nM.
On to `CC(C)c1cc(-c2nc3nc(C(=O)O)nc(N[C@H](C)C4CCC4)c3n2C[C@H]2CC[C@H](C)CC2)[nH]c(=O)c1` [Example 15.3, 6-(((R)-1-cyclobutylethyl)amino)-8-(4-isopropyl-6-oxo-1,6-dihydropyridin-2-yl)-7-((trans-4-methylcyclohexyl)methyl)-7H-purine-2-carboxylic acid], for which the IC50 was 15.5 nM.
Take `C[C@H]1CC[C@H](Cn2c(N3CCOC[C@H]3c3ccccc3)nc3nc(-c4noc(=O)[nH]4)nc(C4CCOCC4)c32)CC1` [Example 16.167, 3-{7-[(trans-4-methylcyclohexyl)methyl]-8-[(3R)-3-phenylmorpholin-4-yl]-6-(tetrahydro-2H-pyran-4-yl)-7H-purin-2-yl}-1,2,4-oxadiazol-5(4H)-one]: the IC50 was found to be 46.6 nM.
As to `C[C@@H](Nc1nc(N2CCC[C@H]2C(=O)O)nc2nc(N3CCOC[C@H]3c3ccccc3)n(C[C@H]3CC[C@H](C)CC3)c12)C1CCC1` [Example 13.2, 1-(6-{[(1R)-1-cyclobutylethyl]amino}-7-[(trans-4-methylcyclohexyl)methyl]-8-[(3R)-3-phenylmorpholin-4-yl]-7H-purin-2-yl)-L-proline], the IC50 stood at 987 nM.
As for `CC(C)c1ccnc(-c2nc3nc(-c4cnn[nH]4)nc(N[C@H](C)C4CCC4)c3n2Cc2ccc(C(F)(F)F)cc2)c1` [Example 12.3, N-[(1R)-1-cyclobutylethyl]-8-[4-(propan-2-yl)pyridin-2-yl]-2-(1H-1,2,3-triazol-5-yl)-7-[4-(trifluoromethyl)benzyl]-7H-purin-6-amine], the IC50 was found to be 535 nM.
Regarding `C[C@H]1OCCN(c2nc3nc(-c4n[nH]c(=O)o4)nc(-c4cccc(Cl)c4)c3n2C[C@H]2CC[C@H](C)CC2)[C@@H]1c1ccccc1` [Example 16.142, 5-{6-(3-chlorophenyl)-7-[(trans-4-methylcyclohexyl)methyl]-8-[(2R,3R)-2-methyl-3-phenylmorpholin-4-yl]-7H-purin-2-yl} - 1,3,4-oxadiazol-2(3H)-one], the IC50 was 1.5 nM.
As for `CC(C)c1ccnc(-c2nc3nc(C(=O)O)nc(N[C@H](C)C4CCC4)c3n2C[C@H]2CC[C@H](C)CC2)c1` [Example 15.1, 6-(((R)-1-cyclobutylethyl)amino)-8-(4-isopropylpyridin-2-yl)-7-((trans-4-methylcyclohexyl)methyl)-7H-purine-2-carboxylic acid], the IC50 was 1.3 nM.

Still in this assay, the particulars now being: Table 6; read-out: FRET IC50.
Regarding `Cc1cccc(-c2nc3nc(C(=O)O)nc(N[C@H](C)C4CCCC4)c3n2Cc2ccc(Cl)cc2)c1` [Example 6.3, 7-(4-chlorobenzyl)-6-{[(1R)-1-cyclopentylethyl]amino}-8-(3-methylphenyl)-7H-purine-2-carboxylic acid], the IC50 amounted to 31.4 nM.
On the same count and under the same terms, with `Cc1cccc(-c2nc3nc(C(=O)O)nc(N[C@H](C)C(C)(C)C)c3n2Cc2ccc(C(F)(F)F)cc2)c1` [Example 6.47, 8-(3-methylphenyl)-7-[4-(trifluoromethyl)benzyl]-6-{[(1R)-1,2,2-trimethylpropyl]amino}-7H-purine-2-carboxylic acid] the figure was 448 nM; with `O=C(O)c1nc(NCC2CC2)c2c(n1)nc(-c1cccc(Cl)c1)n2Cc1ccc(Cl)cc1` [Example 6.12, 7-(4-chlorobenzyl)-8-(3-chlorophenyl)-6-[(cyclopropylmethyl)amino]-7H-purine-2-carboxylic acid], 4100 nM.
On the same count and under the same terms, under `Cc1cccc(-c2nc3nc(C(=O)O)nc(N[C@H](C4CC4)C(F)(F)F)c3n2Cc2ccc(C(F)(F)F)cc2)c1` [Example 6.52, 6-{[(1R)-1-cyclopropyl-2,2,2-trifluoroethyl]amino}-8-(3-methylphenyl)-7-[4-(trifluoromethyl)benzyl]-7H-purine-2-carboxylic acid] stands 319 nM.

The same assay, now with this note: Table 9; read-out: FRET IC50.
`C[C@@H](Nc1nc(-c2noc(=O)[nH]2)nc2nc(N3CCCCC3c3cccc(F)c3)n(Cc3ccc(C(F)(F)F)cc3)c12)C1CCC1` (stereo partly drawn) [Example 9.113, 3-(6-{[(1R)-1-cyclobutylethyl]amino}-8-[2-(3-fluorophenyl)piperidin-1-yl]-7-[4-(trifluoromethyl)benzyl]-7H-purin-2-yl)-1,2,4-oxadiazol-5(4H)-one]: the IC50 stood at 25.9 nM.
As to `C[C@@H](Nc1nc(-c2noc(=O)[nH]2)nc2nc(N3CCCCC3c3ccccc3)n(Cc3ccc(C(F)(F)F)cc3)c12)C1CCC1` (stereo partly drawn) [Example 9.67, 3-(6-{[(1R)-1-cyclobutylethyl]amino}-8-(2-phenylpiperidin-1-yl)-7-[4-(trifluoromethyl)benzyl]-7H-purin-2-yl)-1,2,4-oxadiazol-5(4H)-one], the IC50 was 12.7 nM.

The same assay, now with this note: Table 11; read-out: FRET IC50.
For `C[C@@H](Nc1nc(-c2noc(=O)[nH]2)nc2nc(N3CCOC[C@@H]3C)n(C[C@H]3CC[C@H](C)CC3)c12)C1CCC1` [Example 11.66, 3-(6-{[(1R)-1-cyclobutylethyl]amino}-7-[(trans-4-methylcyclohexyl)methyl]-8-[(3S)-3-methylmorpholin-4-yl]-7H-purin-2-yl)-1,2,4-oxadiazol-5(4H)-one], the IC50 was 5.8 nM.
Still for that read-out and setting: under `C[C@H](Nc1nc2nc(-c3noc(=O)[nH]3)nc(N[C@H](C)C3CCC3)c2n1C[C@H]1CC[C@H](C)CC1)c1cccc(F)c1` [Example 11.106, 3-(6-{[(1R)-1-cyclobutylethyl]amino}-8-{[(1S)-1-(3-fluorophenyl)ethyl]amino}-7-[(trans-4-methylcyclohexyl)methyl]-7H-purin-2-yl)-1,2,4-oxadiazol-5(2H)-one] stands 3.22 nM; under `C[C@@H](Nc1nc(-c2noc(=O)[nH]2)nc2nc(N3CCOC4CCCC43)n(C[C@H]3CC[C@H](C)CC3)c12)C1CCC1` (single isomer, unassigned) [Example 11.133], 0.344 nM; under `C[C@@H](Nc1nc(-c2noc(=O)[nH]2)nc2nc(N3CCCC3c3ccccc3)n(C[C@H]3CC[C@H](C)CC3)c12)C1CCC1` (single isomer, unassigned) [Example 11.135], 2.08 nM.
Take `CCN(C)c1nc2nc(-c3noc(=O)[nH]3)nc(N[C@H](C)C3CCC3)c2n1C[C@H]1CC[C@H](C)CC1` [Example 11.115, 3-(6-{[(1R)-1-cyclobutylethyl]amino}-8-[ethyl(methyl)amino]-7-[(trans-4-methylcyclohexyl)methyl]-7H-purin-2-yl)-1,2,4-oxadiazol-5(2H)-one]: the IC50 came out at 8.13 nM.
With `C[C@@H](Nc1nc(-c2n[nH]c(=O)o2)nc2nc(N3CCOC4CCCCC43)n(C[C@H]3CC[C@H](C)CC3)c12)C1CCC1` (single isomer, unassigned) [Example 11.126], the IC50 is 1.46 nM.
Turning to `CC(Nc1nc2nc(-c3noc(=O)[nH]3)nc(N[C@H](C)C3CCC3)c2n1C[C@H]1CC[C@H](C)CC1)c1cncnc1` (stereo partly drawn) [Example 11.85, 3-(6-{[(1R)-1-cyclobutylethyl]amino}-7-[(trans-4-methylcyclohexyl)methyl]-8-[(1-pyrimidin-5-ylethyl)amino]-7H-purin-2-yl)-1,2,4-oxadiazol-5(2H)-one], the IC50 is 4.97 nM.
On to `C[C@@H](Nc1nc(-c2noc(=O)[nH]2)nc2nc(N3CCCC3C3CCC3)n(C[C@H]3CC[C@H](C)CC3)c12)C1CCC1` (stereo partly drawn) [Example 11.38, 3-(6-{[(1R)-1-cyclobutylethyl]amino}-8-(2-cyclobutylpyrrolidin-1-yl)-7-[(trans-4-methylcyclohexyl)methyl]-7H-purin-2-yl)-1,2,4-oxadiazol-5(2H)-one], for which the IC50 came out at 4.86 nM.

Staying with this assay, now noted: Table 17.2; read-out: FRET IC50.
In the case of `CC(=O)N1C[C@@H](C)N(c2nc3nc(-c4noc(=O)[nH]4)nc(N[C@H](C)C4CCC4)c3n2C[C@H]2CC[C@H](C)CC2)C[C@@H]1C` [Example 17.22, 3-{8-[(2R,5S)-4-acetyl-2,5-dimethylpiperazin-1-yl]-6-{[(1R)-1-cyclobutylethyl]amino}-7-[(trans-4-methylcyclohexyl)methyl]-7H-purin-2-yl}-1,2,4-oxadiazol-5(4H)-one], the IC50 was 4.35 nM.

Staying with this assay, now noted: Table 22; read-out: FRET IC50.
As for `C[C@@H](Nc1nc(-c2noc(=O)[nH]2)nc2nc(C3(O)CCOCC3)n(C[C@H]3CC[C@H](C)CC3)c12)C1CCC1` [Example 22.64, 3-(6-{[(1R)-1-cyclobutylethyl]amino}-8-(4-hydroxytetrahydro-2H-pyran-4-yl)-7-[(trans-4-methylcyclohexyl)methyl] -7H-purin-2-yl)-1,2,4-oxadiazol-5(4H)-one], the IC50 stood at 49 nM.
`C[C@@H](Nc1nc(-c2noc(=O)[nH]2)nc2nc(C3(c4ccccn4)CC3)n(C[C@H]3CC[C@H](C)CC3)c12)C1CCC1` [Example 22.10, 3-[6-{[(1R)-1-cyclobutylethyl]amino}-7-[(trans-4-methylcyclohexyl)methyl]-8-(1-pyridin-2-ylcyclopropyl)-7H-purin-2-yl]-1,2,4-oxadiazol-5(4H)-one]: the IC50 was determined as 6.29 nM.

Still in this assay, the particulars now being: read-out: inh. at 1000 nM (FRET).
Consider `Cc1cccc(-c2nc3nc(C(=O)O)nc(N(C)C(C4CC4)C4CC4)c3n2Cc2ccc(C(F)(F)F)cc2)c1` [Example 6.84, 6-[(dicyclopropylmethyl)(methyl)amino]-8-(3-methylphenyl)-7-[4-(trifluoromethyl)benzyl]-7H-purine-2-carboxylic acid], for which the inhibition at 1 µM was found to be 46%.
The same measure, in the same setting: with `Cc1cccc(-c2nc3nc(C(=O)O)nc(N(C)C4CCCC4)c3n2Cc2ccc(C(F)(F)F)cc2)c1` [Example 6.65, 6-[cyclopentyl(methyl)amino]-8-(3-methylphenyl)-7-[4-(trifluoromethyl)benzyl]-7H-purine-2-carboxylic acid] the figure was 35%.

As usually defined, the IC50 is the point on the concentration scale where inhibition reaches its midpoint.

The values above are taken from patent EP2951180B1, “2,6,7,8 SUBSTITUTED PURINES AS HDM2 INHIBITORS” (Merck Sharp & Dohme Corp., priority 2013, dated 2014).
